Test results from patent US9708279B2, “2-acylaminothiazoles for the treatment of cancer” (UNIVERSITA′ DEGLI STUDI DI MILANO-BICOCCA, priority 2013, dated 2017).
Like-named read-outs stand apart in the source and are kept apart here.

How the values were obtained:
[1] = tested on: BaF3 cells transformed with the oncogenic fusion protein NPM/ALK; assay: Tritiated thymidine uptake cell proliferation assay, BaF3 NPM/ALK; format: cell-based; settings: for IC50: BaF3 NPM/ALK cells, 72 h, 3H-thymidine uptake, read-out: NPM/ALK WT IC50; for Selectivity Index (WT): parental BaF3 versus BaF3 NPM/ALK WT
Method: (§1) Tritiated Thymidine Uptake Cell Proliferation Assay
(§2) The parent untransformed BaF3 cells and ALK-negative cells are used as controls. Cells are seeded in U-bottomed 96-well plates at 10 000 cells/well in a volume of 100 μL in supplemented medium. In the case of the parent untransformed BaF3 cells, the medium is supplemented with IL-3. Serial dilutions of inhibitors are added to the appropriate wells and volumes adjusted to 200 μL. Controls were treated with the equivalent volume of vehicle, DMSO, alone. Plates are incubated at 37° C. for 72 h. ^3[H]-thymidine (1 μCiCi/well) is added for the last 8 h of incubation.

[2] = biological target: recombinant wild-type ALK kinase (rALK) (Homo sapiens (Human), UniProt Q9UM73); assay: ELISA-based in vitro kinase assay, wild-type ALK; format: biochemical; settings: 0.3 mM ATP, read-out: ALK WT IC50
Method: ELISA-Based in vitro Kinase Assay
GST-tagged recombinant wild-type or L1196M mutated ALK kinase (rALK) was expressed in Sf9 insect cells using the pBacPAK baculovirus vector system (Clontech) and purified using Glutathione Sepharose 4B affinity beads (GE Healthcare). Recombinant 3C protease was used to remove the GST tag. Purified ALK was used to screen inhibitors in the ELISA-based kinase assay, as follows: Nunc-Immuno 96-well plates were incubated overnight at 30° C. with coating solution containing 2 μg of a specific ALK peptide substrate ([sequence]) in PBS. Wells were then washed with 200 μL of wash buffer (PBS-Tween 0.05%) and incubated with 4% BSA in PBS for at least 2 h at 30° C. The kinase reaction was performed in the presence of 50 mM Tris pH 7.5, 5 mM MnCl2, 5 mM MgCl2, 0.3 mM ATP and purified rALK in a total volume of 100 μL/well at 30° C. for 15 min. For inhibitor testing the reaction mix was preincubated with inhibitor or vehicle for 10 min at room temperature before transferring to the ELISA plate. After the reaction, the wells were washed 5 times with 200 uL of wash buffer. Phosphorylated peptide was detected using 100 μL/well of a mouse monoclonal anti-phosphotyrosine antibody (clone 4G10 UpstateBiotech Ltd) diluted 1:2000 in PBS+4% BSA. After 30 min incubation at room temperature the antibody was removed and wells were washed as described above. 100 μL of a secondary antibody (anti-mouse IgG, Horseradish Peroxidase linked whole antibody, Amersham Pharmacia Biotech) diluted 1:1000 in PBS+4% BSA was added to each well and the plate was incubated again for 30 min at room temperature before washing as above. The plate was developed using 100 μL/well TMB Substrate Solution (Pierce) and the reaction was stopped by adding an equal volume of 1M H2SO4. Finally, the absorbance was read at 450 nm using an ELISA plate reader (Bio-Rad).

[3] = tested on: parental untransformed BaF3 cells; assay: Tritiated thymidine uptake cell proliferation assay, parental BaF3; format: cell-based; settings: Mus musculus
Method: as §1
as §2, with “incubation. Cells are harvested on to paper filters and ^3[H]-thymidine incorporation is measured using a β scintillation counter (1430 MicroBeta, Wallac, Turku, Finland). The 50% inhibitory concentration (IC50) is defined as the concentration of inhibitor, expressed in micromolar, that give a 50% decrease in ^3[H]-thymidine uptake compared with controls.” for “incubation.”

[4] = parental BaF3 cells (IL-3), 72 h, 3H-thymidine uptake, read-out: Parental IC50

recombinant wild-type ALK kinase (rALK), sequence (Q9UM73 19-1620): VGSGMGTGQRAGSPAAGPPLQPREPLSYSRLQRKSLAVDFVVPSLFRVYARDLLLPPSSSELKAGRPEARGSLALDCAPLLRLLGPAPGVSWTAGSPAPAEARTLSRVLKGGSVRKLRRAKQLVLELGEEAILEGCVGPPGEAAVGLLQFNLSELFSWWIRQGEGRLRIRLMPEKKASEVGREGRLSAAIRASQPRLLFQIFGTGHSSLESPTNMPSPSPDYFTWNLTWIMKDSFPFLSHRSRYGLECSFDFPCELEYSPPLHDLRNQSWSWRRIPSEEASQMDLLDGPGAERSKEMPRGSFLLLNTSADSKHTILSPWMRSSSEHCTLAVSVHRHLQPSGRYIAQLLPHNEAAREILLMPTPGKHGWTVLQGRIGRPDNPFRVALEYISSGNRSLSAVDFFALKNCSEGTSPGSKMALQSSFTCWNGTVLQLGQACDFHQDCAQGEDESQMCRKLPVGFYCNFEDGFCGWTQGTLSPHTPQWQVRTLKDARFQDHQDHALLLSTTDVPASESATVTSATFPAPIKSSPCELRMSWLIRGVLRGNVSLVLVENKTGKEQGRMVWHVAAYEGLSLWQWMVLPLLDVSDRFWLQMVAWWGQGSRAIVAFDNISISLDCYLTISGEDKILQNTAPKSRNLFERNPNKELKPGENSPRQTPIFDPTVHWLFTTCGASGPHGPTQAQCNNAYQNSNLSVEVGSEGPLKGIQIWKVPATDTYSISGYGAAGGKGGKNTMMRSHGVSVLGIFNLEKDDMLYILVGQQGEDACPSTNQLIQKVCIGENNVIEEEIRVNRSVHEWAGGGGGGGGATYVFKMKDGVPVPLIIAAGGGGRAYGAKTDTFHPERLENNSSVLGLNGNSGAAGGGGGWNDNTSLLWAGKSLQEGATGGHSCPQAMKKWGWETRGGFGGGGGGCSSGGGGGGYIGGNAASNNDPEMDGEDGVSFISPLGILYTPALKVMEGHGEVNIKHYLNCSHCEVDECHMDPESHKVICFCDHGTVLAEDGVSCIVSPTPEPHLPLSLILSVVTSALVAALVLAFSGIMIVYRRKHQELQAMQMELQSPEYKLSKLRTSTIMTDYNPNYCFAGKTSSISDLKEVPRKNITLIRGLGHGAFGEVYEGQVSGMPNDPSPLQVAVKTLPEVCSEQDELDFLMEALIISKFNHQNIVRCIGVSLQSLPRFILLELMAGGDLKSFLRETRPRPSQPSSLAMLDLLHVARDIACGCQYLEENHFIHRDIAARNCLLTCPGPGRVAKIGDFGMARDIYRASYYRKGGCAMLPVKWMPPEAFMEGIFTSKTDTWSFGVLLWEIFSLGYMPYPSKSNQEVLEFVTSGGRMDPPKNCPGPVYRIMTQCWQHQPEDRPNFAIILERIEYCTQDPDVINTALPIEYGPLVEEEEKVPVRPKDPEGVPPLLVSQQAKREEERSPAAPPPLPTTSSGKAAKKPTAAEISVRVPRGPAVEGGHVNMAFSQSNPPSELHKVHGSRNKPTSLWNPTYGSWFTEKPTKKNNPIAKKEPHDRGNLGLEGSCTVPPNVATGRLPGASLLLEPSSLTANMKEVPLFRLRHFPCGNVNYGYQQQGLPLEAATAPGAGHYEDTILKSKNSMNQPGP

| Compound | IC50 [1] [µM] | Selectivity Index (WT) [1] | IC50 [2] [µM] | IC50 [3, 4] [µM] | IC50 ([3]; BaF3, read-out: Parental IC50) [µM] |
| --- | --- | --- | --- | --- | --- |
| COc1ccc(C#Cc2cc(-c3csc(NC(=O)c4ccc(CN5CCN(C)CC5)cc4)n3)ccc2C)cc1 [Example 6, N-(4-(3-((4-methoxyphenyl)ethynyl)-4-methylphenyl)thiazol-2-yl)-4-((4-methylpiperazin-1-yl)methyl)benzamide] | 2.1 | 3 | > 100 | 6.6 |  |
| Cc1ccc(-c2csc(NC(=O)c3ccc(CN4CCN(C)CC4)cc3)n2)cc1C#Cc1ccc(F)cc1 [Example 9, N-(4-(3-((4-fluorophenyl)ethynyl)-4-methylphenyl)thiazol-2-yl)-4-((4-methylpiperazin-1-yl)methyl)benzamide] | 2.3 | 2 | > 100 | 4 |  |
| CN1CCN(Cc2ccc(C(=O)Nc3nc(-c4cccc(C#Cc5cc(C(F)(F)F)cc(C(F)(F)F)c5)c4)cs3)cc2)CC1 [Example 33, N-(4-(3-((3,5-bis(trifluoromethyl)phenyl)ethynyl)phenyl)thiazol-2-yl)-4-((4-methylpiperazin-1-yl)methyl)benzamide] |  |  |  |  | 7.1 |
| CN1CCN(C(=O)c2ccc(-c3ccc(C(=O)Nc4nc(-c5cccc(C#Cc6cc(C(F)(F)F)cc(C(F)(F)F)c6)c5)cs4)o3)cc2)CC1 [Example 34, N-(4-(3-((3,5-bis(trifluoromethyl)phenyl)ethynyl)phenyl)thiazol-2-yl)-5-(4-(4-methylpiperazine-1-carbonyl)phenyl)furan-2-carboxamide] | 1.9 | 2 | > 100 | 4 |  |
| CC(C)[Si](C#Cc1ccc(-c2csc(NC(=O)c3ccc(CN4CCN(C)CC4)cc3)n2)cc1)(C(C)C)C(C)C [Example 35, 4-((4-methylpiperazin-1-yl)methyl)-N-(4-(4-((triisopropylsilyl)ethynyl)phenyl)thiazol-2-yl)benzamide] |  |  |  |  | 7.3 |
| CN1CCN(Cc2ccc(C(=O)Nc3nc(-c4ccc(C#Cc5cc(C(F)(F)F)cc(C(F)(F)F)c5)cc4)cs3)cc2)CC1 [Example 36, N-(4-(4-((3,5-bis(trifluoromethyl)phenyl)ethynyl)phenyl)thiazol-2-yl)-4-((4-methylpiperazin-1-yl)methyl)benzamide] |  |  |  |  | 6.9 |
| CN1CCN(Cc2ccc(C(=O)Nc3nc(-c4ccc(C#C[Si](C)(C)C(C)(C)C)cc4)cs3)cc2)CC1 [Example 37, N-(4-(4-((tert-butyldimethylsilyl)ethynyl)phenyl)thiazol-2-yl)-4-((4-methylpiperazin-1-yl)methyl)benzamide] |  |  |  |  | 2.4 |
| CC(C)[Si](C#Cc1cccc(-c2csc(NC(=O)c3ccc(CN4CCOCC4)cc3)n2)c1)(C(C)C)C(C)C [Example 38, 4-(morpholinomethyl)-N-(4-(3-((triisopropylsilyl)ethynyl)phenyl)thiazol-2-yl)benzamide] |  |  |  |  | > 50 |
| O=C(Nc1nc(-c2cccc(C#Cc3cc(C(F)(F)F)cc(C(F)(F)F)c3)c2)cs1)c1ccc(CN2CCOCC2)cc1 [Example 39, N-(4-(3-((3,5-bis(trifluoromethyl)phenyl)ethynyl)phenyl)thiazol-2-yl)-4-(morpholinomethyl)benzamide] | 9 | 4 | > 100 | 33 |  |
| CC(C)(C)[Si](C)(C)C#Cc1cccc(-c2csc(NC(=O)c3ccc(CN4CCOCC4)cc3)n2)c1 [Example 40, N-(4-(3-((tert-butyldimethylsilyl)ethynyl)phenyl)thiazol-2-yl)-4-(morpholinomethyl)benzamide] |  |  |  |  | 18 |
| CC(C)(C)[Si](C#Cc1cccc(-c2csc(NC(=O)c3ccc(CN4CCOCC4)cc3)n2)c1)(c1ccccc1)c1ccccc1 [Example 41, N-(4-(3-((tert-butyldiphenylsilyl)ethynyl)phenyl)thiazol-2-yl)-4-(morpholinomethyl)benzamide] |  |  |  |  | > 50 |
| CN1CCN(Cc2ccc(C(=O)Nc3nc(-c4cccc(C#Cc5ccccc5OC(F)(F)F)c4)cs3)cc2)CC1 [Example 42, 4-((4-methylpiperazin-1-yl)methyl)-N-(4-(3-((2-(trifluoromethoxy)phenyl)ethynyl)phenyl)thiazol-2-yl)benzamide] |  |  |  |  | 2.6 |
| CN1CCN(C(=O)c2ccc(-c3ccc(C(=O)Nc4nc(-c5cccc(C#Cc6ccccc6OC(F)(F)F)c5)cs4)o3)cc2)CC1 [Example 43, 5-(4-(4-methylpiperazine-1-carbonyl)phenyl)-N-(4-(3-((2-(trifluoromethoxy)phenyl)ethynyl)phenyl)thiazol-2-yl)furan-2-carboxamide] | 4.9 | 1 | > 100 | 4.5 |  |
| CC(C)[Si](C#Cc1cccc(-c2csc(NC(=O)c3ccc(CNCCN(C)C)cc3)n2)c1)(C(C)C)C(C)C [Example 44, 4-(((2-(dimethylamino)ethyl)amino)methyl)-N-(4-(3-((triisopropylsilyl)ethynyl)phenyl)thiazol-2-yl)benzamide] | 5.1 |  | > 100 | 7.8 |  |
| CC(C)[Si](C#Cc1cccc(-c2csc(NC(=O)c3ccc(Cn4cnnn4)cc3)n2)c1)(C(C)C)C(C)C [Example 45] |  |  |  |  | 8 |
| CC(C)[Si](C#Cc1cccc(-c2csc(NC(=O)c3ccc(Cn4ccnc4)cc3)n2)c1)(C(C)C)C(C)C [Example 46, 4-((1H-imidazol-1-yl)methyl)-N-(4-(3-((triisopropylsilyl)ethynyl)phenyl)thiazol-2-yl)benzamide] |  |  |  |  | 11 |
| CC(C)OC(=O)CNCc1ccc(C(=O)Nc2nc(-c3cccc(C#C[Si](C(C)C)(C(C)C)C(C)C)c3)cs2)cc1 [Example 47, isopropyl 2-((4-((4-(3-((triisopropylsilyl)ethynyl)phenyl)thiazol-2-yl)carbamoyl)benzyl)amino)acetate] |  |  |  |  | > 25 |
| CC(C)[Si](C#Cc1cccc(-c2csc(NC(=O)c3ccc(CN4CCN(C)CC4)cc3)n2)c1)(C(C)C)C(C)C [Example 48, 4-((4-methylpiperazin-1-yl)methyl)-N-(4-(3-((triisopropylsilyl)ethynyl)phenyl)thiazol-2-yl)benzamide] |  |  |  |  | 13 |
| C#Cc1cccc(-c2csc(NC(=O)c3ccc(CN4CCN(C)CC4)cc3)n2)c1 [Example 49, N-(4-(3-ethynylphenyl)thiazol-2-yl)-4-((4-methylpiperazin-1-yl)methyl)benzamide] |  |  |  |  | 4 |
| C#CCN1CCN(Cc2ccc(C(=O)Nc3nc(-c4cccc(C#C[Si](C(C)C)(C(C)C)C(C)C)c4)cs3)cc2)CC1 [Example 50, 4-((4-(prop-2-yn-1-yl)piperazin-1-yl)methyl)-N-(4-(3-((triisopropylsilyl)ethynyl)phenyl)thiazol-2-yl)benzamide] |  |  |  |  | > 50 |
